# According to patent US7947854B2, “Bis-cationic compounds and use thereof” (The University of Sydney, priority 2003, dated 2011):
# Read-outs that look alike come from different tables or passages of the source. Marks after values point to notes of the source that are not given here.
# Legend:
# [1] = test system: Cryptococcus neoformans ATCC 90112; assay: Antifungal susceptibility testing, microdilution MIC; format: cell-based; details: Cryptococcus neoformans, ATCC90112
# Method in brief: (§1)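 Standard microdilution method, run in duplicate, using serial dilutions of cationic compounds.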
# [2] = test system: Candida albicans ATCC 10231; assay: as above; format: cell-based; details: Candida albicans, ATCC10231
# Method in brief: as §1
# [3] = test system: secreted phospholipase B (PLB activity); assay: Radiometric assay, secreted PLB activity; format: biochemical, Cryptococcus neoformans H99; details: for PLB, percentage inhibition of activity: Secretory Cryptococcal H99 Phospholipase; for % Inhibition PLB, Secretory Enzyme: pH 4
# Method in brief: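 Secreted enzyme was taken from cell-free supernatant of Cryptococcus isolate H99 cells incubated 24 h at 37° C. Reactions at 37° C, pH 4.0 imidazole acetate, used 800 μM DPPC with [14C]-dipalmitoyl PC and 1 μg protein for 22 min. PLB was measured as radiolabelled PC loss by TLC, with inhibition expressed versus inhibitor-free control; compounds were tested at 25 and 250 μM, then 2.5 and 0.25 μM.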
# [4] = test system: erythrocyte; format: cell-based; details: 37° C., 1 h
# Procedure: Human blood was collected in 10 mL Vacutainer tubes containing potassium-EDTA as anticoagulant. The blood from each vacutainer was transferred to a 50 mL centrifuge tube and the cells washed three times with calcium- and magnesium-free phosphate buffered saline (PBS) (Gibco) by centrifugation at 2000×g for 15 min. The third supernatant was clear and colourless. Cells were stored in PBS for up to two weeks. The cell suspension in PBS (0.5 mL) was mixed with a stock solution of test substance (0.5 mL) at the appropriate concentration (final erythrocyte concentration of approx. 0.5×10^9 per mL). The mixtures were incubated at 37° C. for 1 h with gentle shaking, then centrifuged at 2000×g for 10 min. The supernatant was diluted 10-fold with PBS and the optical density measured at 540 nm. The values for 0% and 100% lysis were determined by incubating cells with PBS or 0.1% Triton X-100 (in water), respectively. Assays were carried out in triplicate.
# [5] = Table 7, read-out: MIC (μM) Crypto. (ATCC 90112)
# [6] = Table 7, read-out: MIC (μM) C. alb. (10231)
# [7] = Table 6, no visible growth after 72 h at 35° C., read-out: MIC C. neof. ATCC 90112
# [8] = Table 6, no visible growth after 48 h at 35° C., read-out: MIC C. albicans ATCC 10231
SMILES,"MIC [1, 5] [µM]","MIC [2, 6] [µM]",PLB assay (% inhibition) ([3]; 0.25 μM) [%],PLB assay (% inhibition) ([3]; 2.5 μM) [%],PLB assay (% inhibition) ([3]; 25 μM) [%],PLB assay (% inhibition) ([3]; 250 μM) [%],Haemolytic assay (%) ([4]; 3.5 μM),Haemolytic assay (%) ([4]; 35 μM),Haemolytic assay (%) ([4]; 88 μM),Haemolytic assay (%) ([4]; 175 μM),Haemolytic assay (%) ([4]; 350 μM),"MIC [1, 7] [µM]","MIC [2, 8] [µM]","PLB, percentage inhibition of activity ([3]; 0.25 μM) [%]","PLB, percentage inhibition of activity ([3]; 2.5 μM) [%]","PLB, percentage inhibition of activity ([3]; 25 μM) [%]","PLB, percentage inhibition of activity ([3]; 250 μM) [%]",further results
"CCCC[N+](CCCC)(CCCC)CCCCCCCCCCCC[N+](CCCC)(CCCC)CCCC [1,12-Bis-(tributylammonium)dodecane dichloride]",2.5,5.5,0,6,65,85,0,0,0,5,100,,,,,,,PLB assay (% inhibition) ([3]; 6.7 μM): 35%; PLB assay (% inhibition) ([3]; 12.5 μM): 56%
"CCCC[P+](CCCC)(CCCC)CCCCCCCCCCCC[P+](CCCC)(CCCC)CCCC [Compound 1, 1,12-bis(tributylphosphonium)dodecane dibromide]",2.5,8.8,0,0,35,55,0,0,0,0,0,2.5,8.8,0,0,35,55,"% Inhibition PLB, Secretory Enzyme ([3]; 0.25 μM): 0%; % Inhibition PLB, Secretory Enzyme ([3]; 2.5 μM): 0%; % Inhibition PLB, Secretory Enzyme ([3]; 25 μM): 35.2* %; % Inhibition PLB, Secretory Enzyme ([3]; 250 μM): 55.0* %; Haemolytic assay (%) ([4]; 700 μM): 75%"
"CCCC[N+](CCCC)(CCCC)CCCCCCCCCCCC[N+](CCCC)(CCCC)CCCC [Compound 3, 1,12-bis(tributylammonium)do-decane dibromide]",,,,,,,,,,,,2.5,11,20,65,80,85,
